Entries after “also recorded” stand apart in the source; their conditions may differ.
Legend:
FabG [1] = biological target: T1, FabG (Pseudomonas aeruginosa, UniProt O54438); assay: Back Assay: FabG-catalyzed oxidation of 3-OH decanoyl-NAC, NADPH fluorescence; assay type: biochemical
T1 sequence (O54438 1-247): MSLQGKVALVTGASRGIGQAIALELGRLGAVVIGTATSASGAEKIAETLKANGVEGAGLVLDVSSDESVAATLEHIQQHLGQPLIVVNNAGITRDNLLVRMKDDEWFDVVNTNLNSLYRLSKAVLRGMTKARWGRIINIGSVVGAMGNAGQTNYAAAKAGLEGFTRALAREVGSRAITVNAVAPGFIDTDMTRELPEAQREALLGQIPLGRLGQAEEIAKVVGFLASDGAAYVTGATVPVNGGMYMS

FabG [2] = biological target: T1, FabG; assay: Forward Assay: FabG-catalyzed reduction of AcAcCoA, NADPH consumption at 340 nm
[3] = tested on: Staphylococcus aureus RN4220; assay: Phenotypic growth assay S. aureus; assay type: cell-based
[4] = Lineweaver–Burk plot, 0-200 nM FG01

## 3-hydroxydecanoyl-N-acetylcysteamine [3-OH decanoyl-NAC]
FabG [1]; 3-OH decanoyl-NAC, not determinable, response linear at least to 0.3 mM
  Km: > 300 µM

## c1ccc(-c2nc(-n3cnnc3)c3ccccc3n2)cc1 [FG01, 2-phenyl-4-(1,2,4-triazol-4-yl)quinazoline]
FabG [2]; [4]
  mode of inhibition with respect to AcAcCoA: mixed inhibition pattern
  mode of inhibition with respect to NADPH: noncompetitive mode of inhibition; also recorded: noncompetitive inhibition pattern

## Cn1ncc2c(NCCO)nc(Nc3ccc(F)c(F)c3)nc21 [FG39, 2-[[6-(3,4-difluoroanilino)-1-methylpyrazolo[3,4-d]pyrimidin-4-yl]amino]ethanol]
[3]; S. aureus, 100 μM
  inhibition of cell growth: 35%

## COc1ccccc1Nc1cccc2nccnc12 [FG48, N-(2-methoxyphenyl)quinoxalin-5-amine]
[3]; concentration/effect curve
  effect on growth of S. aureus: completely inhibited the growth

## NC(=O)C1=CN([C@@H]2O[C@H](COP(=O)(O)OP(=O)(O)OC[C@H]3O[C@@H](n4cnc5c(N)ncnc54)[C@H](OP(=O)(O)O)[C@@H]3O)[C@@H](O)[C@H]2O)C=CC1 [NADPH, reference compound]
FabG [2]; NADPH, in the presence of 4 mM AcAcCoA
  Km: 290 ± 30 µM

## NC(=O)c1ccc[n+]([C@@H]2O[C@H](COP(=O)([O-])OP(=O)(O)OC[C@H]3O[C@@H](n4cnc5c(N)ncnc54)[C@H](OP(=O)(O)O)[C@@H]3O)[C@@H](O)[C@H]2O)c1 [NADP^+]
FabG [1]; NADP+, in the presence of 0.3 mM 3-OH decanoyl-NAC
  Km: 290 µM
